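1) Cells in 96-well plates. 2) Compound, 48 h, 5 concentrations. 3) Linear interpolation between surrounding doses. 4) Unreached endpoint = highest concentration. Abbreviation: GI50, concentration required for 50% inhibition of growth. TGI is the concentration that stops growth completely.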
What was measured:
Assay in all cases: NCI tumour cell line growth inhibition, 48 h
HCC-2998 colon = system: HCC-2998 colon
NCI-H460 lung = system: NCI-H460 lung
SF-295 CNS = system: SF-295 CNS
CAKI-1 renal = system: CAKI-1 renal
T-47D breast = system: T-47D breast
SF-268 CNS = system: SF-268 CNS
HT29 colon = system: HT29 colon
UO-31 renal = system: UO-31 renal
NCI-H522 lung = system: NCI-H522 lung
OVCAR-4 ovarian = system: OVCAR-4 ovarian
SR leukemia = system: SR leukemia
OVCAR-5 ovarian = system: OVCAR-5 ovarian
HL-60(TB) leukemia = system: HL-60(TB) leukemia
M14 melanoma = system: M14 melanoma
HOP-92 NSCLC = system: HOP-92 NSCLC
SNB-19 CNS = system: SNB-19 CNS
COLO 205 colon = system: COLO 205 colon
TK-10 renal = system: TK-10 renal
HCT-116 colon = system: HCT-116 colon
IGROV1 ovarian = system: IGROV1 ovarian
U251 CNS = system: U251 CNS
OVCAR-8 ovarian = system: OVCAR-8 ovarian
K-562 leukemia = system: K-562 leukemia
KM12 colon = system: KM12 colon
SK-MEL-28 melanoma = system: SK-MEL-28 melanoma
MDA-MB-435 = system: MDA-MB-435
MCF7 breast = system: MCF7 breast
NCI/ADR-RES ovarian = system: NCI/ADR-RES ovarian
MALME-3M melanoma = system: MALME-3M melanoma
SK-MEL-2 melanoma = system: SK-MEL-2 melanoma
A498 renal = system: A498 renal
UACC-62 melanoma = system: UACC-62 melanoma
NCI-H226 lung = system: NCI-H226 lung
BT-549 breast = system: BT-549 breast
SW-620 colon = system: SW-620 colon
OVCAR-3 ovarian = system: OVCAR-3 ovarian
CCRF-CEM leukemia = system: CCRF-CEM leukemia
EKVX NSCLC = system: EKVX NSCLC
UACC-257 melanoma = system: UACC-257 melanoma
RPMI-8226 leukemia = system: RPMI-8226 leukemia
ACHN renal = system: ACHN renal
HS 578T breast = system: HS 578T breast
DU-145 prostate = system: DU-145 prostate
SK-OV-3 ovarian = system: SK-OV-3 ovarian
PC-3 prostate = system: PC-3 prostate
NCI-H23 lung = system: NCI-H23 lung
SN12C renal = system: SN12C renal
SK-MEL-5 melanoma = system: SK-MEL-5 melanoma
786-0 renal = system: 786-0 renal
A549 NSCLC = system: A549 NSCLC
MDA-MB-231 breast = system: MDA-MB-231 breast
MOLT-4 leukemia = system: MOLT-4 leukemia
LOX IMVI melanoma = system: LOX IMVI melanoma
SNB-75 CNS = system: SNB-75 CNS
HCT-15 colon = system: HCT-15 colon
SF-539 CNS = system: SF-539 CNS
HOP-62 NSCLC = system: HOP-62 NSCLC

## Cc1nc2c(n1C)C(=O)c1ccccc1C2=O
HCC-2998 colon
  GI50: 67.6 µM
  TGI: > 100 µM
NCI-H460 lung
  GI50: 18 µM
  TGI: > 100 µM
SF-295 CNS
  GI50: 10.8 µM
  TGI: 72.3 µM
CAKI-1 renal
  GI50: 29.4 µM
  TGI: > 100 µM
T-47D breast
  GI50: 87.4 µM
  TGI: > 100 µM
SF-268 CNS
  GI50: > 100 µM
  TGI: > 100 µM
HT29 colon
  GI50: 37.2 µM
  TGI: > 100 µM
UO-31 renal
  GI50: 77.6 µM
  TGI: > 100 µM
NCI-H522 lung
  GI50: 40.6 µM
  TGI: > 100 µM
OVCAR-4 ovarian
  GI50: 43.5 µM
  TGI: > 100 µM
SR leukemia
  GI50: 48.9 µM
  TGI: > 100 µM
OVCAR-5 ovarian
  GI50: > 100 µM
  TGI: > 100 µM
HL-60(TB) leukemia
  GI50: 46.8 µM
  TGI: > 100 µM
M14 melanoma
  GI50: 43 µM
  TGI: > 100 µM
HOP-92 NSCLC
  GI50: > 100 µM
  TGI: > 100 µM
SNB-19 CNS
  GI50: 91.3 µM
  TGI: > 100 µM
COLO 205 colon
  GI50: 37.4 µM
  TGI: > 100 µM
TK-10 renal
  GI50: > 100 µM
  TGI: > 100 µM
HCT-116 colon
  GI50: 40 µM
  TGI: > 100 µM
IGROV1 ovarian
  GI50: 31.3 µM
  TGI: > 100 µM
U251 CNS
  GI50: 63.9 µM
  TGI: > 100 µM
OVCAR-8 ovarian
  GI50: > 100 µM
  TGI: > 100 µM
K-562 leukemia
  GI50: 59.3 µM
  TGI: > 100 µM
KM12 colon
  GI50: 59.7 µM
  TGI: > 100 µM
SK-MEL-28 melanoma
  GI50: > 100 µM
  TGI: > 100 µM
MDA-MB-435
  GI50: 48.1 µM
  TGI: > 100 µM
MCF7 breast
  GI50: 46.1 µM
  TGI: > 100 µM
NCI/ADR-RES ovarian
  GI50: 81.7 µM
  TGI: > 100 µM
MALME-3M melanoma
  GI50: 4.74 µM
  TGI: 28.5 µM
SK-MEL-2 melanoma
  GI50: > 100 µM
  TGI: > 100 µM
A498 renal
  GI50: > 100 µM
  TGI: > 100 µM
UACC-62 melanoma
  GI50: 56 µM
  TGI: > 100 µM
NCI-H226 lung
  GI50: > 100 µM
  TGI: > 100 µM
BT-549 breast
  GI50: > 100 µM
  TGI: > 100 µM
SW-620 colon
  GI50: 52 µM
  TGI: > 100 µM
OVCAR-3 ovarian
  GI50: 25.2 µM
  TGI: 68.6 µM
CCRF-CEM leukemia
  GI50: 59.3 µM
  TGI: > 100 µM
EKVX NSCLC
  GI50: 60.4 µM
  TGI: > 100 µM
UACC-257 melanoma
  GI50: 29.4 µM
  TGI: > 100 µM
RPMI-8226 leukemia
  GI50: > 100 µM
  TGI: > 100 µM
ACHN renal
  GI50: > 100 µM
  TGI: > 100 µM
HS 578T breast
  GI50: > 100 µM
  TGI: > 100 µM
DU-145 prostate
  GI50: 51.3 µM
  TGI: > 100 µM
SK-OV-3 ovarian
  GI50: > 100 µM
  TGI: > 100 µM
PC-3 prostate
  GI50: 63.9 µM
  TGI: > 100 µM
NCI-H23 lung
  GI50: 50.4 µM
  TGI: > 100 µM
SN12C renal
  GI50: 49.4 µM
  TGI: > 100 µM
SK-MEL-5 melanoma
  GI50: 22 µM
  TGI: 85.2 µM
786-0 renal
  GI50: > 100 µM
  TGI: > 100 µM
A549 NSCLC
  GI50: 21.5 µM
  TGI: > 100 µM
MDA-MB-231 breast
  GI50: > 100 µM
  TGI: > 100 µM
MOLT-4 leukemia
  GI50: 85 µM
  TGI: > 100 µM
LOX IMVI melanoma
  GI50: 38.5 µM
  TGI: > 100 µM
SNB-75 CNS
  GI50: > 100 µM
  TGI: > 100 µM
HCT-15 colon
  GI50: 53.6 µM
  TGI: > 100 µM
SF-539 CNS
  GI50: 85.5 µM
  TGI: > 100 µM
HOP-62 NSCLC
  GI50: > 100 µM
  TGI: > 100 µM
